According to patent publication US11464770B2, “Anticancer pharmaceutical composition” (NATIONAL CANCER CENTER, priority 2016, dated 2022):
Read-outs that look alike come from different tables or passages of the source.

Legend:
[1] = test system: ovarian cancer cell lines; test: Cell based assay, cell viability (CellTiter-Glo), ovarian cancer cell lines; conditions: Homo sapiens; OVCAR-3 cells
Method: (§1) Commercially available bladder cancer, prostate cancer, lung cancer, breast cancer, blood cancer, pancreatic cancer, colorectal cancer, brain cancer, neuroblastoma, melanoma, liver cancer, cervical carcinoma, ovarian cancer, renal cancer, and papilloma cell lines were each treated with trypsin-EDTA and cultured, followed by being seeded in each well of a 96 well plate. After 24 hours of treatment at constant temperature, the respective cells were treated with the candidate compound so that a final concentration became 0 to 2 μM. The treated cells were additionally cultured for 72 hours, and cell viability was measured by using an ATP detection method (CellTiter-Glo® Luminescent Cell Viability Assay, Promega).

[2] = test system: pancreatic cancer cell lines (e.g. MIA PaCa-2); test: Cell based assay, cell viability (CellTiter-Glo), pancreatic cancer cell lines; conditions: Homo sapiens
Method: as §1

[3] = pancreatic cancer cell line AsPC-1, 72 hours, read-out: IC50, AsPC-1
[4] = pancreatic cancer cell line BxPC-3, 72 hours, read-out: IC50, BxPC-3
[5] = pancreatic cancer cell line CFPAC-1, 72 hours, read-out: IC50, CFPAC-1
[6] = pancreatic cancer cell line Capan-1, 72 hours, read-out: IC50, Capan-1
[7] = pancreatic cancer cell line Capan-2, 72 hours, read-out: IC50, Capan-2
[8] = pancreatic cancer cell line MIA PaCa-2, 72 hours, read-out: IC50, MIA PaCa-2
[9] = pancreatic cancer cell line PANC-1, 72 hours, read-out: IC50, PANC-1

Row | Compound | IC50 [1] [nM] | IC50 [2, 3] [nM] | IC50 [2, 4] [nM] | IC50 [2, 5] [nM] | IC50 [2, 6] [nM] | IC50 [2, 7] [nM] | IC50 [2, 8] [nM] | IC50 [2, 9] [nM]
1 | CCS(=O)(=O)n1c([S+](C)[O-])c(C(C)=O)c(=O)c2c(Cl)ccc(Br)c21 (centres unmarked) [Compound 39, 3-acetyl-8-bromo-5-chloro-1-(ethylsulfonyl)-2-(methylsulfinyl)quinolin-4(1H)-one] | > 2000 | > 2000 | > 2000 | > 10000 | > 2000 | > 2000 | > 2000 | > 2000
2 | CC(=O)c1c([S+]([O-])Cc2cccc(C#N)c2)[nH]c2c(Br)ccc(Cl)c2c1=O (centres unmarked) [Compound 28, 3-(((3-acetyl-8-bromo-5-chloro-4-oxo-1,4-dihydroquinolin-2-yl)sulfinyl)methyl)benzonitrile] | 690 | > 2000 | > 2000 | > 10000 | > 2000 | > 2000 | 880 | > 2000
3 | CC(=O)c1c([S+](C)[O-])n(S(=O)(=O)C(F)(F)F)c2c(Br)ccc(Cl)c2c1=O (centres unmarked) [Compound 36, 3-acetyl-8-bromo-5-chloro-2-(methylsulfinyl)-1-((trifluoromethyl)sulfonyl)quinolin-4(1H)-one] | > 2000 | > 2000 | > 2000 | > 10000 | > 2000 | > 2000 | > 2000 | > 2000
4 | CC(=O)c1c(SCc2cccc(I)c2)[nH]c2c(Br)ccc(Cl)c2c1=O [Compound 47, 3-acetyl-8-bromo-5-chloro-2-((3-iodobenzyl)thio)quinolin-4(1H)-one] | > 2000 | > 2000 | > 2000 | > 10000 | > 2000 | > 2000 | > 2000 | > 2000
5 | CC(=O)c1c(SCc2ccccc2)n(C(=O)c2ccc(Br)cc2)c2c(Br)ccc(Cl)c2c1=O [Compound 23, 3-acetyl-2-(benzylthio)-8-bromo-1-(4-bromobenzoyl)-5-chloroquinolin-4(1H)-one] | > 2000 | > 2000 | > 2000 | > 10000 | > 2000 | > 2000 | > 2000 | > 2000
6 | CSc1c(C(C)=O)c(=O)c2c(Cl)ccc(Br)c2n1S(=O)(=O)c1ccc(Cl)cc1 [Compound 37, 3-acetyl-8-bromo-5-chloro-1-((4-chlorophenyl)sulfonyl)-2-(methylthio)quinolin-4(1H)-one] | > 2000 | > 2000 | > 2000 | > 10000 | > 2000 | > 2000 | > 2000 | > 2000
7 | CSc1c(C(C)=O)c(=O)c2cc(F)ccc2n1C [Compound 7, 3-acetyl-6-fluoro-1-methyl-2-(methylthio)quinolin-4(1H)-one] | > 2000 | > 2000 | > 2000 | > 10000 | > 2000 | > 2000 | > 2000 | > 2000
8 | CC(=O)c1c([S+](C)[O-])n(Cc2ccc(F)c(Cl)c2)c2c(Br)ccc(Cl)c2c1=O (centres unmarked) [Compound 22, 3-acetyl-8-bromo-5-chloro-1-(3-chloro-4-fluorobenzyl)-2-(methylsulfinyl)quinolin-4(1H)-one] | > 2000 | > 2000 | > 2000 | > 10000 | > 2000 | > 2000 | > 2000 | > 2000
9 | CC(=O)c1c(SCc2ccccc2)nc2c(Br)ccc(Cl)c2c1O [Compound 52, 1-(2-(benzylthio)-8-bromo-5-chloro-4-hydroxyquinolin-3-yl)ethan-1-one] | > 2000 | > 2000 | > 2000 | > 10000 | > 2000 | > 2000 | > 2000 | > 2000
10 | CC(=O)c1c(S/C=C\C(=O)O)[nH]c2c(Br)ccc(Cl)c2c1=O [Compound 67, (Z)-3-((3-acetyl-8-bromo-5-chloro-4-oxo-1,4-dihydroquinolin-2-yl)thio)acrylic acid] | > 2000 | > 2000 | > 2000 | > 10000 | > 2000 | > 2000 | > 2000 | > 2000
11 | COc1ccccc1[S+]([O-])c1[nH]c2c(Br)ccc(Cl)c2c(=O)c1C(C)=O (centres unmarked) [Compound 15, 3-acetyl-8-bromo-5-chloro-2-((2-methoxyphenyl)sulfinyl)quinolin-4(1H)-one] | > 2000 | > 2000 | > 2000 | > 10000 | > 2000 | > 2000 | 1630 | > 2000
12 | CSc1c(C(C)=O)c(=O)c2c(Cl)ccc(Br)c2n1S(=O)(=O)c1ccc([N+](=O)[O-])cc1 [Compound 38, 3-acetyl-8-bromo-5-chloro-2-(methylthio)-1-((4-nitrophenyl)sulfonyl)quinolin-4(1H)-one] | > 2000 | > 2000 | > 2000 | > 10000 | > 2000 | > 2000 | > 2000 | > 2000
13 | CC(=O)c1c(S(C)(=O)=O)n(C(=O)c2ccc(Br)cc2)c2c(Br)ccc(Cl)c2c1=O [Compound 21, 3-acetyl-8-bromo-1-(4-bromobenzoyl)-5-chloro-2-(methylsulfonyl)quinolin-4(1H)-one] | > 2000 | > 2000 | > 2000 | > 10000 | > 2000 | > 2000 | > 2000 | > 2000
14 | CC(=O)c1c(S(C)(=O)=O)n(S(=O)(=O)c2ccc(C(C)(C)C)cc2)c2c(Br)ccc(Cl)c2c1=O [Compound 41, 3-acetyl-8-bromo-1-((4-(tert-butyl)phenyl)sulfonyl)-5-chloro-2-(methylsulfonyl)quinolin-4(1H)-one] | > 2000 | > 2000 | > 2000 | > 10000 | > 2000 | > 2000 | > 2000 | > 2000
15 | CC(=O)c1c([S+]([O-])C(C)C)[nH]c2c(Br)ccc(Cl)c2c1=O (centres unmarked) [Compound 25, 3-acetyl-8-bromo-5-chloro-2-(isopropylsulfinyl)quinolin-4(1H)-one] | > 2000 | > 2000 | > 2000 | > 10000 | > 2000 | > 2000 | > 2000 | > 2000

Next, values leading:

Row | IC50 [1] [nM] | IC50 [2, 3] [nM] | IC50 [2, 4] [nM] | IC50 [2, 5] [nM] | IC50 [2, 6] [nM] | IC50 [2, 7] [nM] | IC50 [2, 8] [nM] | IC50 [2, 9] [nM] | Compound
16 | > 2000 | > 2000 | > 2000 | > 10000 | > 2000 | > 2000 | > 2000 | > 2000 | Cc1cc(C[S+]([O-])c2[nH]c3c(Cl)ccc(Cl)c3c(=O)c2C(=O)c2ccccc2)no1 (centres unmarked) [Compound 88, 3-benzoyl-5,8-dichloro-2-(((5-methylisoxazol-3-yl)methyl)sulfinyl)quinolin-4(1H)-one]
17 | > 2000 | > 2000 | > 2000 | > 10000 | > 2000 | > 2000 | > 2000 | > 2000 | CC(=O)c1c([S+]([O-])Cc2cnc3[nH]ccc3c2)[nH]c2c(Br)ccc(Cl)c2c1=O (centres unmarked) [Compound 107, 2-(((1H-pyrrolo[2,3-b]pyridin-5-yl)methyl)sulfinyl)-3-acetyl-8-bromo-5-chloroquinolin-4(1H)-one]
18 | 1130 | > 2000 | > 2000 | > 10000 | > 2000 | > 2000 | 1390 | > 2000 | CC(=O)c1c([S+]([O-])Cc2cccc(S(F)(F)(F)(F)F)c2)[nH]c2c(Br)ccc(Cl)c2c1=O (centres unmarked) [Compound 77, 3-acetyl-8-bromo-5-chloro-2-((3-(pentafluoro--sulfanyl)benzyl)sulfinyl)quinolin-4(1H)-one]
19 | 1100 | > 2000 | > 2000 | > 10000 | > 2000 | > 2000 | 1650 | > 2000 | COc1cccc2[nH]c([S+]([O-])Cc3cc(C)on3)c(C(C)=O)c(=O)c12 (centres unmarked) [Compound 94, 3-acetyl-5-methoxy-2-(((5-methylisoxazol-3-yl)methyl)sulfinyl)quinolin-4(1H)-one]
20 | 750 | > 2000 | > 2000 | > 10000 | > 2000 | > 2000 | 1140 | > 2000 | Cc1cc(C[S+]([O-])c2[nH]c3c(Br)ccc(Cl)c3c(=O)c2C(=O)C2CC2)no1 (centres unmarked) [Compound 96, 8-bromo-5-chloro-3-(cyclopropanecarbonyl)-2-(((5-methylisoxazol-3-yl)methyl)sulfinyl)quinolin-4(1H)-one]
21 | > 2000 | > 2000 | > 2000 | > 10000 | > 2000 | > 2000 | > 2000 | > 2000 | COc1cccc2[nH]c(SCc3ccc(S(F)(F)(F)(F)F)cc3)c(C(C)=O)c(=O)c12 [Compound 92, 3-acetyl-5-methoxy-2-((4-(pentafluoro--sulfanyl)benzyl)thio)quinolin-4(1H)-one]
22 | > 2000 | > 2000 | > 2000 | > 10000 | > 2000 | > 2000 | > 2000 | > 2000 | CC(=O)c1c([S+]([O-])Cc2ccc(NS(C)(=O)=O)cc2)[nH]c2c(Br)ccc(Cl)c2c1=O (centres unmarked) [Compound 103, N-(4-(((3-acetyl-8-bromo-5-chloro-4-oxo-1,4-dihydroquinolin-2-yl)sulfinyl)methyl)phenyl)methane-sulfonamide]
23 | 590 | 1740 | > 2000 | > 10000 | 1520 | > 2000 | 860 | > 2000 | Cc1cc(C[S+]([O-])c2[nH]c3c(Cl)ccc(Cl)c3c(=O)c2C(=O)C2CC2)no1 (centres unmarked) [Compound 97, 5,8-dichloro-3-(cyclopropanecarbonyl)-2-(((5-methylisoxazol-3-yl)methyl)sulfinyl)quinolin-4(1H)-one]
24 | > 2000 | > 2000 | > 2000 | > 10000 | > 2000 | > 2000 | > 2000 | > 2000 | CC(=O)c1c([S+]([O-])Cc2ccc(C(F)(F)F)o2)[nH]c2c(F)ccc(F)c2c1=O (centres unmarked) [Compound 81, 3-acetyl-5,8-difluoro-2-(((5-(trifluoromethyl)furan-2-yl)methyl)sulfinyl)quinolin-4(1H)-one]
25 | 1990 | > 2000 | > 2000 | > 10000 | > 2000 | > 2000 | 1830 | > 2000 | O=C(c1c([S+]([O-])Cc2ccc(SC(F)(F)F)cc2)[nH]c2c(Br)ccc(Cl)c2c1=O)C1CC1 (centres unmarked) [Compound 101, 8-bromo-5-chloro-3-(cyclopropanecarbonyl)-2-((4-((trifluoromethyl)thio)benzyl)sulfinyl)quinolin-4(1H)-one]
